Results published in paper PMC6865014, “Discovery of Novel µ-Opioid Receptor Inverse Agonist from a Combinatorial Library of Tetrapeptides through Structure-Based Virtual Screening” (Molecules, 2019).

How the values were obtained:
[1] = test system: DOR (δ-opioid receptor), rat brain membranes; assay: Radioligand competition binding, [^3H]IleDelt II; set-up: species or system rat (male Wistar); details: 3 and 10 µM
Experimental: (§1) Rats were decapitated and their brains were quickly removed. The brains were used for membrane preparation according to Benyhe et al. partly used for competition binding experiments and partly were further prepared for the [^35S]GTPγS binding experiments based on Zádor et al.. Briefly, the brains were homogenized, centrifuged in ice-cold 50 mM Tris-HCl (pH 7.4) buffer and incubated at 37 °C for 30 min in a shaking water-bath. After incubation, the centrifugation was repeated as described before and the final pellet was suspended in 50 mM Tris-HCl pH 7.4 buffer containing 0.32 M sucrose and stored at −80 °C. For the [^35S]GTPγS binding experiments the final pellet of rat brain membrane homogenate was suspended in ice-cold TEM (Tris-HCl, EGTA, MgCl2) and stored at −80 °C for further use.
Total and non-specific binding was determined in the absence of ligands and the presence of 10 µM unlabeled naloxone, respectively. […] The radioactivity of the filters was detected in UltimaGold^TM MV aqueous scintillation cocktail with Packard Tricarb 2300TR liquid scintillation counter. […]
(§2) The specific binding of all radiolabeled compounds was calculated by the subtraction of non-specific binding from total binding and was given in percentage. […]

[2] = test system: Gαi/o protein, rat brain membrane homogenates; assay: Functional [^35S]GTPγS binding (G-protein activity); type: biochemical, rat (male Wistar); details: 10 µM, basal activity = 100%, 30 °C, 60 min, triplicates, at least three times; for effect on G-protein basal activity / [^35S]GTPγS specific binding (in words): rat brain membranes, pH 7.4
Experimental: as §1
In [^35S]GTPγS binding experiments was measured the GDP→GTP exchange of the Gαi/o protein in the presence of a given ligand to measure ligand potency and the maximal efficacy of receptors G-protein. The nucleotide exchange is monitored by a radioactive, non-hydrolysable GTP analog, [^35S]GTPγS. The functional [^35S]GTPγS binding experiments were performed as previously described, with some modifications. The test compounds in 10 µM were incubated together with rat brain membrane homogenates containing ~10 μg/mL protein at 30 °C for 60 min in Tris-EGTA buffer (pH 7.4) composed of 50 mM Tris-HCl, 1 mM EGTA, 3 mM MgCl2, 100 mM NaCl, containing 20 MBq/0.05 cm^3 [^35S]GTPγS (0.05 nM). […] Total binding was measured in the absence of test compounds, while non-specific binding was determined in the presence of 10 μM unlabeled GTPγS. The bound and unbound [^35S]GTPγS were separated as described in the competition binding assays section through Whatmann GF/B glass fibers. The radioactivity of the filters was also detected as described above. [^35S]GTPγS binding experiments were performed in triplicates and repeated at least three times.
(§3) The specific binding of all radiolabeled compounds was calculated by the subtraction of non-specific binding from total binding and was given in percentage. The data were normalized to total specific binding, which was settled 100%, which in the case of [^35S]GTPγS also represents the basal activity of the G-protein. Experimental data were presented as mean ± S.E.M. Statistical analyses were performed with GraphPad Prism 5.0 applying one-way ANOVA with Tukey’s multiple comparison test. Significance was accepted at the p < 0.05 level.

[3] = test system: MOR (µ-opioid receptor), rat brain membranes; assay: Radioligand competition binding, [^3H]DAMGO; set-up: species or system rat (male Wistar); details: for activity against MOR (in words): stated when comparing binding modes, up to 10 µM
Experimental: as §1
Total and non-specific binding was determined in the absence of ligands and the presence of 10 µM unlabeled naloxone, respectively. Following incubation, the bound and unbound radioligands were separated by rapid vacuum filtration through Whatman GF/C glass fibers and washed three times with 5 mL ice-cold 50 mM Tris-HCl (pH: 7.4). The radioactivity of the filters was detected in UltimaGold^TM MV aqueous scintillation cocktail with Packard Tricarb 2300TR liquid scintillation counter. The competition binding assays were performed in duplicate and repeated at least three times.
as §3

[4] = test system: MOR, rat brain membrane homogenates; assay: MOR specificity of the peptide 1 effect: [^35S]GTPγS binding with co-incubated DAMGO or cyprodime; type: biochemical, rat (male Wistar); details: rat brain membranes
Experimental: as §1, with “For the [^35S]GTPγS binding experiments the final pellet of rat brain membrane homogenate was suspended in ice-cold TEM (Tris-HCl, EGTA, MgCl2) and stored at −80 °C for further use.” left out
In [^35S]GTPγS binding experiments was measured the GDP→GTP exchange of the Gαi/o protein in the presence of a given ligand to measure ligand potency and the maximal efficacy of receptors G-protein. The nucleotide exchange is monitored by a radioactive, non-hydrolysable GTP analog, [^35S]GTPγS. […] Total binding was measured in the absence of test compounds, while non-specific binding was determined in the presence of 10 μM unlabeled GTPγS. […] The radioactivity of the filters was also detected as described above. […]
as §2

[5] = molecular target: δ-opioid receptor (rat (endogenous in Wistar rat brain)) (UniProt P33533); assay: radioligand binding; competition against ~1 nM [^3H]IleDelt II on rat brain membranes (0.3-0.5 mg/mL protein), test ligands at 3 and 10 µM, 35 °C, 45 min; non-specific binding with 10 µM naloxone; filtration, 50 mM Tris-HCl pH 7.4 wash
[6] = test system: δ-opioid receptors; details: ref [11]; cited from earlier work
From the text: These are potent μ-opioid agonists that exert addiction liability and numerous side effects, such as euphoria, addiction, respiratory depression, and gastrointestinal adverse reactions; therefore; circumventing these drawbacks is of extensive importance. A large amount of literature documented novel approaches to disconnecting the analgesic efficacy of μ-opioid agonists from morphine-like side effects, for example biasing the GPCRs over β-arrestin2 recruitment (TRV130, PZM21, HS665) or designing positive allosteric modulators of the MOR (BMS-986122), MOR inverse agonists/KOR antagonists, ...

[7] = molecular target: µ-opioid receptor (rat (endogenous in Wistar rat brain)) (UniProt P33535)

Question: What does the source list for “H-Tyr-Lys-Arg-Cys-OH [peptide 1, TFA.H-Tyr-Lys-Arg-Cys-OH]”?
Answer: inhibition of [^3H]IleDelt II specific binding (in words) [1]: not against [^3H]IleDelt II; reduction of G-protein basal activity ([^35S]GTPγS specific binding) ([2]; rat brain membranes ~10 μg/mL, pH 7.4, 0.05 nM [^35S]GTPγS): ~ 20%; effect on G-protein basal activity / [^35S]GTPγS specific binding (in words) [2]: appreciable inverse agonist effect; inhibition of [^3H]DAMGO specific binding (in words) ([3]; 3 and 10 µM, rat brain membranes): displayed inhibition of [^3H]DAMGO specific binding; selectivity MOR over DOR (in words) ([3]; [^3H]DAMGO vs [^3H]IleDelt II binding, rat brain membranes): selectivity for MOR over DOR; MOR functional activity (in words) ([4]; 10 µM): appreciable inverse agonist effect at MOR; inverse agonist effect in presence of DAMGO ([4]; peptide 1 10 µM + DAMGO 10 µM): the inverse agonist effect was reversed back to basal activity level

Question: With “H-Tyr-Trp-Trp-Trp-OH [peptide 2, TFA.H-Tyr-Trp-Trp-Trp-OH]” as the molecule, how does the “effect on G-protein basal activity / [^35S]GTPγS specific binding (in words)” value [2] read?
Answer: did not alter significantly the basal activity

Question: And the “activity against MOR (in words)” value [3]?
Answer: inactive against MOR

Question: With “H-Tyr-Trp-Tyr-Trp-OH [peptide 3, TFA.H-Tyr-Trp-Tyr-Trp-OH]” as the molecule, how does the “effect on G-protein basal activity / [^35S]GTPγS specific binding (in words)” value [2] read?
Answer: did not alter significantly the basal activity

Question: What about the “activity against MOR (in words)” value [3] of the same molecule?
Answer: inactive against MOR

Question: With Ile^5,6-deltorphin II (peptide) as the molecule, how does the specific binding of the radiolabeled homolog left (percent of total) [5] read?
Answer: 0%

Question: With “Tyr-D-Ala-Gly-(NMe)Phe-Gly-ol [DAMGO, reference compound]” as the molecule, how does the “effect on G-protein basal activity / [^35S]GTPγS specific binding (in words)” value [2] read?
Answer: significantly increased the specific binding of the [^35S]GTPγS compared to the basal level

Question: And the “specific binding of [^3H]DAMGO in presence of unlabeled homologue” value ([3]; control, unlabeled DAMGO 3 and 10 µM, rat brain membranes, 35 °C, 45 min, 0% = non-specific binding level)?
Answer: 0%

Question: Which “G protein signaling at δ-opioid receptors (in words)” value [6] does the source give for rubiscolin-6 here?
Answer: activate G protein signaling pathways at the δ-opioid receptors

Question: What about the “β-arrestin recruitment (in words)” value [6] of the same molecule?
Answer: minimal β-arrestin recruitment

Question: With YKRC [peptide 1 (Tyr-Lys-Arg-Cys)] as the molecule, how does the [^35S]GTPγS specific binding (G-protein basal activity) in rat brain membranes, 10 µM peptide 1 [7] read?
Answer: 20%
